Laboratory results: ChEMBL document CHEMBL3822445, “Histone demethylating agents as potential S-adenosyl-l-methionine-competitors” (Medchemcomm, 2016)
Active and inactive are the calls of the source. The rule behind the calls is not given here.

How the values were obtained:
MCF7 [1] = assay: Induction of apoptosis in human MCF7 cells assessed as late apoptotic cells at 15 uM after 72 hrs by AnnexinV-FITC staining based flow cytometry (reference value: 11.8 +/- 2.2 %); format: functional
[2] = Antiproliferative activity against human Ovarian cancer LA#110 cells assessed as cell survival at 20 uM after 72 hrs by MTT assay relative to control; format: functional; details: read-out: Survival
MCF7 [3] = assay: Cell cycle arrest in human MCF7 cells assessed as accumulation at S phase at 15 uM after 24 to 72 hrs by flow cytometry relative to control; format: functional
MCF7 [4] = assay: Induction of apoptosis in human MCF7 cells assessed as viable cells at 15 uM after 72 hrs by AnnexinV-FITC staining based flow cytometry (reference value: 60.5 +/- 6 %); format: functional; details: MCF7, 72 h, read-out: Activity
MCF7 [5] = assay: Inhibition of DNA methylation in human MCF7 cells assessed as decrease in 5-methylcytosine level by ELISA; format: cell-based
[6] = Antiproliferative activity against human H460 cells after 48 to 72 hrs by MTT assay; format: functional, cell-based; details: NCI-H460
[7] = Antiproliferative activity against human Ovarian cancer LA#83 cells assessed as cell survival at 20 uM after 72 hrs by MTT assay relative to control; format: functional; details: read-out: Survival
MCF7 [8] = assay: Induction of apoptosis in human MCF7 cells assessed as late apoptotic cells at 15 uM after 48 hrs by AnnexinV-FITC staining based flow cytometry (reference value: 7.6 +/- 5.9 %); format: functional
MCF7 [9] = assay: Inhibition of DNA methylation in human MCF7 cells assessed as reduction in H3K27me3 levels at 15 uM after 48 hrs by Western blot analysis; format: cell-based
[10] = biological target: T1, Histone-lysine N-methyltransferase EHMT2 (Homo sapiens) (UniProt Q96KQ7); assay: Inhibition of G9a in human MCF7 nuclear extracts assessed as reduction in H3K9 levels at 15 uM after 48 hrs; format: cell-based
T1 sequence (whole entry): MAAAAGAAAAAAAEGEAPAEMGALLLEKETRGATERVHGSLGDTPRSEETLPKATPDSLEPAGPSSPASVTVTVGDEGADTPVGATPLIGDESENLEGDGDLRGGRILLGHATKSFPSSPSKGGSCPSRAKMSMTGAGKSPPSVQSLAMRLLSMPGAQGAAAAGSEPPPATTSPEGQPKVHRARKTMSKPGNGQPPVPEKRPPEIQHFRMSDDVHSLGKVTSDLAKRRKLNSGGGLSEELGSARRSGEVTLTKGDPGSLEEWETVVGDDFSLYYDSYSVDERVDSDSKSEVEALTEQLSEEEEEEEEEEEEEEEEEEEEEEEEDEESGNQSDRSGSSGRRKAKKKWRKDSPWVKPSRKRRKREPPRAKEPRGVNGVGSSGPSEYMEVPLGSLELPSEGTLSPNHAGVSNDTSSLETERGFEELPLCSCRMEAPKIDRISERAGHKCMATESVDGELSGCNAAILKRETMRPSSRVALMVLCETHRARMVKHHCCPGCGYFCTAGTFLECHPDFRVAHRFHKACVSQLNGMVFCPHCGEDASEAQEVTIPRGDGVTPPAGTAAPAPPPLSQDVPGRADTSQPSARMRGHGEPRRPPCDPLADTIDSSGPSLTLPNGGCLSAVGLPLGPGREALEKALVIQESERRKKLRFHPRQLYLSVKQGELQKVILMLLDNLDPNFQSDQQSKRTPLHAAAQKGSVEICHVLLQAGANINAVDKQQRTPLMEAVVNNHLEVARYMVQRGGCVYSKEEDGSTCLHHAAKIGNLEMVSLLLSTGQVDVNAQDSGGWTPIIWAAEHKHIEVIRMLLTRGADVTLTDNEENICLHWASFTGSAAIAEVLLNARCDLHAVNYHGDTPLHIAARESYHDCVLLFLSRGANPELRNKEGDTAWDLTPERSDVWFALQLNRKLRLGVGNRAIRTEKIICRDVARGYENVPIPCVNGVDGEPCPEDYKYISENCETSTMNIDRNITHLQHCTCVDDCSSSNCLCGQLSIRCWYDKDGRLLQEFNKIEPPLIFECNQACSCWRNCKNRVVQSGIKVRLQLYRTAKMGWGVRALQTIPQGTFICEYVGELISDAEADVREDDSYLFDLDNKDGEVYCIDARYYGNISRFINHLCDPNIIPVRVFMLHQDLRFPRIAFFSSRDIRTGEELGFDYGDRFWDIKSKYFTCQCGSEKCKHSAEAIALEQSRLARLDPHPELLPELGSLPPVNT

[11] = Antiproliferative activity against human Ovarian cancer DC#110 cells assessed as cell survival at 20 uM after 72 hrs by MTT assay relative to control; format: functional; details: read-out: Survival
MCF7 [12] = assay: Antiproliferative activity against human MCF7 cells after 48 to 72 hrs by MTT assay; format: functional, cell-based
MCF7 [13] = assay: Induction of apoptosis in human MCF7 cells assessed as necrotic cells at 15 uM after 48 hrs by AnnexinV-FITC staining based flow cytometry (reference value: 10.2 +/- 1.9 %); format: functional
MSTO-211H = assay: Antiproliferative activity against human MSTO-211H cells after 48 to 72 hrs by MTT assay; format: functional, cell-based
MCF7 [14] = assay: Inhibition of DNA methylation in human MCF7 cells assessed as reduction in H3K9me3 levels at 15 uM after 48 hrs by Western blot analysis; format: cell-based
MCF7 [15] = assay: Induction of apoptosis in human MCF7 cells assessed as necrotic cells at 15 uM after 72 hrs by AnnexinV-FITC staining based flow cytometry (reference value: 7.6 +/- 1 %); format: functional
MCF7 [16] = assay: Induction of apoptosis in human MCF7 cells assessed as early apoptotic cells at 15 uM after 48 hrs by AnnexinV-FITC staining based flow cytometry (reference value: 7.8 +/- 5.3 %); format: functional
MCF7 [17] = assay: Induction of apoptosis in human MCF7 cells assessed as viable cells at 15 uM after 48 hrs by AnnexinV-FITC staining based flow cytometry (reference value: 74.4 +/- 9.1 %); format: functional; details: MCF7, 48 h, read-out: Activity
MCF7 [18] = assay: Inhibition of DNA methylation in human MCF7 cells assessed as decrease in methylation of RARbeta DNA by qPCR method; format: cell-based
MCF7 [19] = assay: Induction of apoptosis in human MCF7 cells assessed as early apoptotic cells at 15 uM after 72 hrs by AnnexinV-FITC staining based flow cytometry (reference value: 20.1 +/- 7.3 %); format: functional
[20] = Antiproliferative activity against human Ovarian cancer DC#83 cells assessed as cell survival at 20 uM after 72 hrs by MTT assay relative to control; format: functional; details: read-out: Survival
[21] = biological target: T1, Histone-lysine N-methyltransferase EHMT2 (Homo sapiens); assay: Inhibition of G9a in human MCF7 nuclear extracts assessed as reduction in H3K27 levels at 15 uM after 48 hrs; format: cell-based
MCF7 [22] = assay: Inhibition of DNA methylation in human MCF7 cells assessed as reduction in H3K9me3 levels at 0.5 to 1 uM after 48 hrs by Western blot analysis; format: cell-based
MCF7 [23] = assay: Cell cycle arrest in human MCF7 cells assessed as accumulation at G2/M phase at 15 uM after 72 hrs by flow cytometry relative to control; format: functional
MCF7 [24] = assay: Inhibition of DNA methylation in human MCF7 cells assessed as melting temperature of RARbeta amplicon DNA by qPCR method (reference value: 77 degC); format: cell-based

Compound	Activity (MCF7 [1]) [%]	viability at 20 µM [2] [%]	viability at 15 µM (MCF7 [4]) [%]	inhibition (MCF7 [5])	IC50 [6] [µM]	viability at 20 µM [7] [%]	Activity (MCF7 [8]) [%]	inhibition (MCF7 [9])	inhibition [10]	viability at 20 µM [11] [%]	IC50 (MCF7 [12]) [µM]	Activity (MCF7 [13]) [%]	IC50 (MSTO-211H) [µM]	inhibition (MCF7 [14])	Activity (MCF7 [15]) [%]	Activity (MCF7 [16]) [%]	viability at 15 µM (MCF7 [17]) [%]	Activity (MCF7 [19]) [%]	viability at 20 µM [20] [%]	inhibition [21]	other results
CCCCN1C(=O)[C@@H]2Cc3c([nH]c4ccccc34)CN2C1=O	17.7	66.7	47.7	Active	> 20	81.9	13.8	inactive	Active	80.8	37.5	4.2	> 20	inactive	6.7	13	69	27.9	93.3	–	Activity (MCF7 [3]): 10.8%; inhibition (MCF7 [18]): inactive
Nc1nccc2c1ncn2[C@@H]1C=C(CO)[C@@H](O)[C@H]1O	24.1	30.4	52.6	–	–	42.5	16.1	–	Active	13.6	–	7.8	–	–	5.9	12.8	32.2	17.4	63.5	Active	inhibition (MCF7 [22]): inactive
CN1c2ccccc2C(=O)N2CCc3c([nH]c4ccccc34)[C@H]21	33.2	26.8	41.9	Active	0.26	53.2	27.6	60%	Active	43.1	5.4	9	0.54	100%	8.1	11.9	51.5	16.8	65.5	inactive	Activity (MCF7 [23]): 39.3%; Tm (MCF7 [24]): 75.5 °C
